The text below walks through data of patent US9463188B2, “Osteopontin production inhibitor containing dictyopyrone derivative or dihydrodictyopyrone derivative as active ingredient” (TOHOKU UNIVERSITY, priority 2013, dated 2016).

The structures appear in SMILES notation.

For this assay, the system named is human non-small cell lung cancer-derived cell line A549. In words: Wound-Healing assay. The following applies: A549 cells, 2 days after injury. The class given is cell-based. The source says:
In the next stage, a determination was made as to whether or not the physiological function of cells induced by OPN production was suppressed by the compound 3 as a test compound. The determination was made by performing cell Wound-Healing assay. This assay is commonly known as a method for evaluating cell migration capacity. When a wound is made in a cell monolayer by scratching some cells with a pipette tip or the like, the wound is closed by migration of cells around the wound. The influence of a test compound on such function was observed by adding the test compound to a cell culture liquid. […]
Based on the taken images, the areas of the wounds were determined using Image-Pro Plus 7.0J (MediaCybernetics). Then, a wound healing rate (%) was calculated based on the following calculation formula: Wound healing rate (%)=100−[area of wound after 2 days from injury/area of wound just after injury]×100. The average wound-healing rates (%) of the control group and the two compound 3-treated groups at different concentrations were calculated. Further, the percentage of the wound-healing rate of the compound-treated group with respect to the wound-healing rate of the control group was also calculated.
The statistical processing of calculated values of the wound-healing rate was performed using Excel statistics, Statcel 3. […]

Consider `CCCCCCCCCCCC(=O)[C@H]1C(=O)O[C@@H](C)C[C@@H]1C` [Chemical formula 3], for which the “wound-healing rate vs control group” value was “no difference” (12.5 μmol/L) and “significantly suppressed” (25 μmol/L, significance level less than 1%).
